Experimental data reported in the NIST ThermoML archive (doi:10.1021/je1001413).

Conditions: Liquid, Vibrating tube method

CC(C)CCCCCCCOC(=O)c1ccccc1C(=O)OCCCCCCCC(C)C
Conditions | mass density [kg/m3]
313.15 K, 100 kPa | 952.6
313.15 K, 200 kPa | 952.6
313.15 K, 400 kPa | 952.8
313.15 K, 620 kPa | 952.9
313.15 K, 800 kPa | 953
313.15 K, 1030 kPa | 953.1
313.15 K, 2010 kPa | 953.7
313.15 K, 3000 kPa | 954.3
313.15 K, 4000 kPa | 955
313.15 K, 5020 kPa | 955.5
313.15 K, 5990 kPa | 956.2
313.15 K, 7030 kPa | 956.7
313.15 K, 8000 kPa | 957.4
313.15 K, 9020 kPa | 957.9
313.15 K, 10010 kPa | 958.5
313.15 K, 15010 kPa | 961.4
313.15 K, 20000 kPa | 964.2
313.15 K, 25030 kPa | 967
313.15 K, 30000 kPa | 969.7
313.15 K, 35020 kPa | 972.2
313.15 K, 40020 kPa | 974.8
313.15 K, 45010 kPa | 977.2
313.15 K, 49970 kPa | 979.7
313.15 K, 55000 kPa | 982
313.15 K, 59980 kPa | 984.4
313.15 K, 64970 kPa | 986.6
323.15 K, 100 kPa | 945.4
323.15 K, 210 kPa | 945.5
323.15 K, 400 kPa | 945.6
323.15 K, 600 kPa | 945.7
323.15 K, 800 kPa | 945.9
323.15 K, 1000 kPa | 946
323.15 K, 2000 kPa | 946.6
323.15 K, 3030 kPa | 947.2
323.15 K, 4030 kPa | 947.9
323.15 K, 5020 kPa | 948.5
323.15 K, 6010 kPa | 949.1
323.15 K, 7000 kPa | 949.7
323.15 K, 8000 kPa | 950.3
323.15 K, 9010 kPa | 950.9
323.15 K, 10020 kPa | 951.6
323.15 K, 15000 kPa | 954.5
323.15 K, 20010 kPa | 957.5
323.15 K, 25030 kPa | 960.3
323.15 K, 30010 kPa | 963.2
323.15 K, 34970 kPa | 965.8
323.15 K, 40000 kPa | 968.5
323.15 K, 45000 kPa | 970.9
323.15 K, 49980 kPa | 973.5
323.15 K, 54980 kPa | 975.8
323.15 K, 60000 kPa | 978.3
323.15 K, 65000 kPa | 980.6
333.15 K, 100 kPa | 938.3
333.15 K, 200 kPa | 938.4
333.15 K, 400 kPa | 938.5
333.15 K, 630 kPa | 938.7
333.15 K, 800 kPa | 938.8
333.15 K, 1000 kPa | 938.9
333.15 K, 2010 kPa | 939.6
333.15 K, 3000 kPa | 940.2
333.15 K, 4000 kPa | 940.9
333.15 K, 5000 kPa | 941.5
333.15 K, 6000 kPa | 942.2
333.15 K, 7030 kPa | 942.8
333.15 K, 7980 kPa | 943.5
333.15 K, 9010 kPa | 944.1
333.15 K, 10030 kPa | 944.8
333.15 K, 14990 kPa | 947.9
333.15 K, 20000 kPa | 951
333.15 K, 25000 kPa | 953.8
333.15 K, 30020 kPa | 956.7
333.15 K, 34990 kPa | 959.4
333.15 K, 39970 kPa | 962.2
333.15 K, 45020 kPa | 964.8
333.15 K, 50000 kPa | 967.4
333.15 K, 55020 kPa | 969.8
333.15 K, 60000 kPa | 972.3
333.15 K, 65000 kPa | 974.7
343.15 K, 100 kPa | 931.2
343.15 K, 220 kPa | 931.3
343.15 K, 430 kPa | 931.5
343.15 K, 610 kPa | 931.6
343.15 K, 810 kPa | 931.8
343.15 K, 1000 kPa | 931.9
343.15 K, 2000 kPa | 932.6
343.15 K, 3000 kPa | 933.3
343.15 K, 3980 kPa | 934
343.15 K, 5010 kPa | 934.6
343.15 K, 5980 kPa | 935.3
343.15 K, 7000 kPa | 936
343.15 K, 7990 kPa | 936.6
343.15 K, 9020 kPa | 937.3
343.15 K, 9980 kPa | 937.9
343.15 K, 15010 kPa | 941.2
343.15 K, 19990 kPa | 944.3
343.15 K, 25010 kPa | 947.4
343.15 K, 29980 kPa | 950.4
343.15 K, 35030 kPa | 953.3
343.15 K, 40030 kPa | 956.1
343.15 K, 45010 kPa | 958.7
343.15 K, 50050 kPa | 961.4
343.15 K, 55000 kPa | 964
343.15 K, 60000 kPa | 966.5
343.15 K, 65020 kPa | 968.9
353.15 K, 100 kPa | 924.2
353.15 K, 200 kPa | 924.3
353.15 K, 410 kPa | 924.5
353.15 K, 630 kPa | 924.6
353.15 K, 800 kPa | 924.8
353.15 K, 1010 kPa | 924.9
353.15 K, 2000 kPa | 925.6
353.15 K, 3000 kPa | 926.3
353.15 K, 3980 kPa | 927
353.15 K, 4990 kPa | 927.7
353.15 K, 6000 kPa | 928.4
353.15 K, 7000 kPa | 929.1
353.15 K, 8010 kPa | 929.8
353.15 K, 9000 kPa | 930.5
353.15 K, 10010 kPa | 931.2
353.15 K, 15040 kPa | 934.6
353.15 K, 20000 kPa | 937.9
353.15 K, 24970 kPa | 941
353.15 K, 29980 kPa | 944.1
353.15 K, 35010 kPa | 947.1
353.15 K, 40000 kPa | 950
353.15 K, 45000 kPa | 952.7
353.15 K, 49990 kPa | 955.5
353.15 K, 55000 kPa | 958.1
353.15 K, 60010 kPa | 960.7
353.15 K, 65020 kPa | 963.2
363.15 K, 100 kPa | 917.2
363.15 K, 200 kPa | 917.3
363.15 K, 420 kPa | 917.4
363.15 K, 600 kPa | 917.6
363.15 K, 800 kPa | 917.7
363.15 K, 990 kPa | 917.9
363.15 K, 2000 kPa | 918.6
363.15 K, 2980 kPa | 919.4
363.15 K, 3960 kPa | 920.1
363.15 K, 4970 kPa | 920.9
363.15 K, 5990 kPa | 921.6
363.15 K, 7020 kPa | 922.3
363.15 K, 7980 kPa | 923
363.15 K, 9030 kPa | 923.8
363.15 K, 10000 kPa | 924.5
363.15 K, 15000 kPa | 928
363.15 K, 19990 kPa | 931.4
363.15 K, 25010 kPa | 934.7
363.15 K, 30020 kPa | 937.9
363.15 K, 34980 kPa | 940.9
363.15 K, 39990 kPa | 943.9
363.15 K, 44980 kPa | 946.8
363.15 K, 49990 kPa | 949.6
363.15 K, 55000 kPa | 952.3
363.15 K, 60040 kPa | 955
363.15 K, 64990 kPa | 957.6
